# Patent publication US20140373438A1, “Method for Thinning Fruit” (BAYER CROPSCIENCE AG, priority 2001, published 2014)
# Where two headings read alike, the source gives them in different places.
# Experiments:
# [1] = tested on: young plant organs (leaves and fruits); settings: applied, preferably sprayed, together with the thinning formulations
# [2] = tested on: "Golden Delicious" apple variety; settings: 7 days post-flowering, standard 98 g, cited from earlier work
# apple varieties = experiment: Plant tolerance by visual scoring in thinning experiments; type: in vivo; settings: application rates 500 mg/l and 700 mg/l
# Description: According to visual scoring, formulations comprising […] metamitron show no or only minimal damage when used in thinning experiments on a wide range of apple varieties, while formulations comprising 700 mg/l metamitron cause minimal to clearly discernable damage under identical conditions.
# plants = settings: use for fruit thinning, J. Amer. Soc. Hort. Sci. 115(1): 14-19 (1990); cited from earlier work
smiles,measurement,setting,value
O=C[O-].O=C[O-].[Ca+2] [calcium formate],plant intolerance symptoms,[1],plant intolerance symptoms were not observed
Cc1nnc(-c2ccccc2)c(=O)n1N [metamitron],fruit weight,[2]; application rate 500 mg/l,150 g
same,fruit weight,[2]; application rate 700 mg/l,180 g
same,plant damage at the application rates of Guzewski,apple varieties,plant damage (foliar necroses) can be observed
CSc1nnc(C(C)(C)C)c(=O)n1N [metribuzin],plant tolerance,plants,unsatisfactory
